US20050032912A1, “Anaesthetic compositions and method for their administration” (priority 2001, published 2005)
Entries after “also recorded” stand apart in the source; their conditions may differ.

Legend:
Solubility in water = type: physicochemical
Procedure: Other anaesthetic agents are administered to the patient by means of injection. Although generally less desirable than inhaled agents for reasons of ease of administration and the maintenance of a controlled amount of the anaesthetic composition, these are used in an variety of applications. For example, propofol is a widely used anaesthetic administered to the patient by injection. The anaesthetic agents is propofol contained in an appropriate formulation. […] Propofol must be thoroughly distributed in any anaesthetic formulation, and generally brought in to solution, because the administration of propofol itself in to the patient's blood stream can cause severe problems.
Preparation of anaesthetic formulations of the invention is generally straightforward.
In addition, some poloxamers require increased temperatures in order to satisfactorily micellise in water. In general, concentrations of poloxamer of about 10% w/v are useful in the present invention, but concentrations of poloxamers, whether single or mixed, can be selected as appropriate and will generally be above 0.5% and below about 20%. More preferred concentrations are from 5% to 15%. Some poloxamers will begin to gel at higher concentrations, and any poloxamer concentration that gels at body temperature, especially when in association with propofol, should be avoided for injection purposes.

[1] = cited from earlier work
[2] = tested on: patients who have Parkinson's disease; conditions: cited from earlier work
[3] = Solubilisation of propofol in aqueous poloxamer solution (micellar)

## CC(C)c1cccc(C(C)C)c1O [propofol]
Solubility in water
  solubility in water (in words): virtually insoluble in water; also recorded: not readily soluble in water
[1]; bloodstream, patient
  half-life in the bloodstream: nine
[1]; three days after propofol anaesthesia
  concentration in the body: less than 0.02 mg/kg bodyweight
[2]; after propofol anaesthesia
  duration of tremor reduction: up to three
[2]; after-effect of propofol anaesthesia
  effect on tremors (in words): reduction in tremors
[3]; 10% w/w poloxamer in water, poloxamer P237
  maximum concentration of propofol: about 3.2%
[3]; poloxamer P407
  propofol dissolved: 1.7%
